Laboratory results published in patent publication US7608604B2, “Antiparasitic agents” (Pfizer Limited, priority 2007, dated 2009).

System: Haemonchus contortus L3
Experiment: Haemonchus contortus L3 (HcL3) in vitro test
Assay type: cell-based
Conditions: minimum effective dose; exsheathed L3 larvae in vitro, 37° C., observed up to 4 days, n=2
Method: The Haemonchus contortus L3 (HcL3) test is used to measure the biological activities of the compounds claimed. The assay involves in vitro testing against H. contortus conducted according to the following general procedure.
HcL3 larvae were collected from infected sheep and, after cleaning, stored in water at 12° C. for up to one month. Viable infective larvae were exsheathed using 10% hypochlorite in Glucose Tyrodes balanced salt solution containing antibiotics and resuspended in basal medium (20 g/l bacto-tryptone, 5 g/l yeast extract, 57 g/l glucose, 0.8 g/l di-Potassium hydrogen orthophosphate, 0.8 g/l potassium dihydrogen orthophosphate and […] Hepes with antibiotics). 95 μl worm suspension was added to each well of a 96 well plate.
Test compounds were dissolved in dimethylsulfoxide to give a working stock solution of 20 mg/ml. The stock concentration was diluted 1:10 in Basal media to give 2.0 mg/ml (10% DMSO). 5 μl of the stock compound solution was added to the worm suspension to give a final concentration of 100 μg/ml. Plates were sealed with pressure sensitive film and incubated at 37° C. Observations were made 2 hrs, 24 hrs, 48 hrs, 72 hrs and 4 days post-treatment using an inverted microscope. Activity was recorded if a significant proportion of the worms were dead or adversely affected by the compound when compared to the control well containing 1% DMSO. Compounds were initially tested at 100 μg/ml, wherefrom relevant dose responses (100, 30, 10, 3, 1, 0.3, 0.1 μg/ml) were conducted in duplicate experiments to generate n=2. Data was recorded as minimum effective dose.

| Compound | in vitro H.c. (L3) MED [µg/mL] |
| --- | --- |
| CC(C#N)(COc1ccc(C#N)cc1C(F)(F)F)NC(=O)c1ccc(S(F)(F)(F)(F)F)cc1 (racemic) [Example 3a, N-{1-Cyano-2-[4-cyano-2-(trifluoromethyl)Phenoxy]-1-methylethyl}-4-(pentafluorothio)benzamide] | 1 |
| CC(C#N)(COc1ccc(C#N)cc1C(F)(F)F)NC(=O)c1ccc(S(F)(F)(F)(F)F)cc1 (single isomer, unassigned) [Example 3c, N-{1-Cyano-2-[4-cyano-2-(trifluoromethyl)Phenoxy]-1-methylethyl}-4-(pentafluorothio)benzamide] | > 30 |
| CC(C#N)(COc1cc(C#N)ccc1C(F)(F)F)NC(=O)c1ccc(S(F)(F)(F)(F)F)cc1 (racemic) [Example 1a, N-{1-cyano-2-[5-cyano-2-(trifluoromethyl)phenoxy]-1-methylethyl}-4-(pentafluorothio)benzamide] | 3 |

Same assay, conditions: minimum effective dose; table of Examples 5-11

| Compound | H.c. (L3) MED [µg/mL] |
| --- | --- |
| CC(C#N)(COc1ccc(C#N)cc1Br)NC(=O)c1ccc(S(F)(F)(F)(F)F)cc1 (stereo not drawn) [Example 11, N-[2-(2-Bromo-4-cyanophenoxy)-1-cyano-1-methylethyl]-4-(pentafluorothio)benzamide] | 3 |
| CC(C#N)(COc1cc(C#N)ccc1C#N)NC(=O)c1ccc(S(F)(F)(F)(F)F)cc1 (stereo not drawn) [Example 9, N-[1-Cyano-2-(3,6-dicyanophenoxy)-1-methylethyl]-4-(pentafluorothio)benzamide] | 3 |
| CC(C#N)(COc1ccc(C#N)cc1Cl)NC(=O)c1ccc(S(F)(F)(F)(F)F)cc1 (stereo not drawn) [Example 5, N-[2-(2-Chloro-4-cyanophenoxy)-1-cyano-1-methylethyl]-4-(pentafluorothio)benzamide] | 3 |

Same assay, conditions: minimum effective dose; table of Examples 13a-42; 13a/b, 27a/b, 29a/b, 33a/b tested as mixtures of regioisomers

| Compound | H.c. (L3) MED [µg/mL] |
| --- | --- |
| CC(C#N)(COc1ccc(C#N)cc1)NC(=O)c1ccc(S(F)(F)(F)(F)F)cc1 (stereo not drawn) [Example 22, N-[1-Cyano-2-(4-cyanophenoxy)-1-methylethyl]-4-(pentafluorothio)benzamide] | 10 |
| CC(C#N)(COc1cc(Cl)ccc1C#N)NC(=O)c1ccc(S(F)(F)(F)(F)F)cc1 (stereo not drawn) [Example 24, N-[2-(5-Chloro-2-cyanophenoxy)-1-cyano-1-methylethyl]4-(pentafluorothio)benzamide] | 3 |
| CC(C#N)(COc1cc(Cl)cc(C#N)c1)NC(=O)c1ccc(S(F)(F)(F)(F)F)cc1 (stereo not drawn) [Example 14, N-[2-(3-Chloro-5-cyanophenoxy)-1-cyano-1-methylethyl]-4-(pentafluorothio)benzamide] | 3 |
| N-[2-(4-Chlorophenoxy)-1-cyano-1-methylethyl]-(pentafluorothio)benzamide [Example 15] | 30 |
| CC(C#N)(COc1ccc(C#N)cc1F)NC(=O)c1ccc(S(F)(F)(F)(F)F)cc1 (stereo not drawn) [Example 29a, N-[1-Cyano-2-(4-cyano-2-fluorophenoxy)-1-methylethyl]-4-(pentafluorothio)benzamide] | 10 |
| CC(C#N)(COc1cc(C#N)ccc1Br)NC(=O)c1ccc(S(F)(F)(F)(F)F)cc1 (stereo not drawn) [Example 32, N-[2-(2-Bromo-5-cyanophenoxy)-1-cyano-1-methylethyl]-4-(pentafluorothio)benzamide] | 3 |
| CC(C#N)(COc1cc(F)cc(Cl)c1)NC(=O)c1ccc(S(F)(F)(F)(F)F)cc1 (stereo not drawn) [Example 23, N-[2-(3-Chloro-5-fluorophenoxy)-1-cyano-1-methylethyl]-4-(pentafluorothio)benzamide] | 30 |
| CC(C#N)(COc1ccc(F)c(C#N)c1)NC(=O)c1ccc(S(F)(F)(F)(F)F)cc1 (stereo not drawn) [Example 27b, N-[1-Cyano-2-(3-cyano-4-fluorophenoxy)-1-methylethyl]-4-(pentafluorothio)benzamide] | 3 |
| CC(C#N)(COc1cccc(F)c1C#N)NC(=O)c1ccc(S(F)(F)(F)(F)F)cc1 (stereo not drawn) [Example 18, N-[1-Cyano-2-(2-cyano-3-fluorophenoxy)-1-methylethyl]-4-(pentafluorothio)benzamide] | 10 |
| CC(C#N)(COc1ccc(I)cc1)NC(=O)c1ccc(S(F)(F)(F)(F)F)cc1 (stereo not drawn) [Example 20, N-[1-Cyano-2-(4-iodophenoxy)-1-methylethyl]-4-(pentafluorothio)benzamide] | 3 |
| CC(C#N)(COc1cc(C#N)ccc1F)NC(=O)c1ccc(S(F)(F)(F)(F)F)cc1 (stereo not drawn) [Example 29b, N-[1-Cyano-2-(5-cyano-2-fluorophenoxy)-1-methylethyl]-4-(pentafluorothio)benzamide] | 10 |
| CC(C#N)(COc1cccc(Cl)c1)NC(=O)c1ccc(S(F)(F)(F)(F)F)cc1 (stereo not drawn) [Example 31] | 10 |
| CC(C#N)(COc1ccccc1C(F)(F)F)NC(=O)c1ccc(S(F)(F)(F)(F)F)cc1 (stereo not drawn) [Example 21, N-{1-Cyano-1-methyl-2-[2-(trifluoromethyl)phenoxy]ethyl}-4-(pentafluorothio)benzamide] | 30 |
| CC(C#N)(COc1cc(Br)cc(C#N)c1)NC(=O)c1ccc(S(F)(F)(F)(F)F)cc1 (stereo not drawn) [Example 35, N-[2-(3-Bromo-5-cyanophenoxy)-1-cyano-1-methylethyl]-4-(pentafluorothio)benzamide] | 3 |
| N-[2-(2-Chloro-4-fluorophenoxy)-1-cyano-1-methylethyl]-4-(pentafluorothio)benzamide [Example 13a] | 1 |
| CC(C#N)(COc1cccc(C#N)c1Br)NC(=O)c1ccc(S(F)(F)(F)(F)F)cc1 (stereo not drawn) [Example 37, N-[2-(2-Bromo-3-cyanophenoxy)-1-cyano-1-methylethyl]-4-(pentafluorothio)benzamide] | 3 |
| CC(C#N)(COc1cc(Cl)ccc1Cl)NC(=O)c1ccc(S(F)(F)(F)(F)F)cc1 (stereo not drawn) [Example 38, N-[1-Cyano-2-(2,5-dichlorophenoxy)-1-methylethyl]-4-(pentafluorothio)benzamide] | 10 |

Same assay, conditions: minimum effective dose; table of Examples 45-49

| Compound | H.c. (L3) MED [µg/mL] |
| --- | --- |
| CC(C#N)(COc1cc(F)cc(C#N)c1)NC(=O)c1ccc(S(F)(F)(F)(F)F)cc1 (stereo not drawn) [Example 48, N-[1-Cyano-2-(3-cyano-5-fluorophenoxy)-1-methylethyl]-4-(pentafluorothio)benzamide] | 3 |
| CC(C#N)(COc1cc(C#N)ccc1C(N)=O)NC(=O)c1ccc(S(F)(F)(F)(F)F)cc1 (stereo not drawn) [Example 45, 4-Cyano-2-(2-cyano-2-{[4-(pentafluorothio)benzoyl]amino}propoxy)benzamide] | 30 |
| CC(C#N)(COc1ccc(C(N)=O)cc1Cl)NC(=O)c1ccc(S(F)(F)(F)(F)F)cc1 (stereo not drawn) [Example 49] | 10 |

Same assay, conditions: minimum effective dose; table of Examples 51-52

| Compound | H.c. (L3) MED [µg/mL] |
| --- | --- |
| CC(C#N)(COc1c(F)cc(C#N)cc1F)NC(=O)c1ccc(S(F)(F)(F)(F)F)cc1 (stereo not drawn) [Example 51, N-[1-Cyano-2-(4-cyano-2,6-difluorophenoxy)-1-methylethyl]-4-(pentafluorothio)benzamide] | 3 |

Same assay, conditions: minimum effective dose; unit not given

| Compound | in vitro H.c. (L3) MED |
| --- | --- |
| CC(C#N)(COc1ccc(C(N)=O)cc1C(F)(F)F)NC(=O)c1ccc(S(F)(F)(F)(F)F)cc1 (racemic) [Example 43, 4-(2-Cyano-2-{[4-(pentafluorothio)benzoyl]amino}propoxy)-3-(trifluoromethyl)benzamide] | 1 |
| CC(C#N)(COc1cc(C#N)cc(C(N)=O)c1)NC(=O)c1ccc(S(F)(F)(F)(F)F)cc1 (racemic) [Example 53, 3-Cyano-5-(2-cyano-2-{[4-(pentafluorothio)benzoyl]amino}propoxy)benzamide] | 30 |
| CC(C#N)(COc1cccc(C#N)c1)NC(=O)c1ccc(S(F)(F)(F)(F)F)cc1 (racemic) [Example 50, N-[1-Cyano-2-(3-cyanophenoxy)-1-methylethyl]-4-(pentafluorothio)benzamide] | 3 |
